Assay: Inhibition of Vipera russelii venom sPLA2-induced hemolytic activity in human erythrocytes assessed as reduction hemoglobin release in presence of egg yolk preincubated for 5 mins followed by erythrocyte addition by spectrophotometric analysis

**Q.** Which IC50 does the source give for `COc1ccc(C2CC(c3ccco3)=Nc3ccccc3S2)cc1` (stereo unspecified) here?
**A.** 21.3 µM
